Experimental data from the C3SDB collision cross section collection.
“And” between values parts separate entries of the source, which are not always exact repeats. Equal values may be shown once.

Conditions: instrument: DT, stepped-field

Row | Structure (SMILES) | collision cross section (N2) ([M+H]+) | collision cross section (N2) ([M+Na]+) | other results
1 | OCC1OC(OC2C(CO)OC(OC3C(CO)OC(OC4C(CO)OC(OC5C(CO)OC(OC6C(CO)OC(OC7C(CO)OC(OC8C(CO)OC(OC9C(CO)OC(OC%10C(CO)OC(O)C(O)C%10O)C(O)C9O)C(O)C8O)C(O)C7O)C(O)C6O)C(O)C5O)C(O)C4O)C(O)C3O)C(O)C2O)C(O)C(O)C1O (stereo not drawn) [(Hex)10] | 365.1 Å² and 390.3 Å² | 365.1 Å² and 373.8 Å² | collision cross section (N2) ([M+H-H2O]+): 383.4 Å²
2 | CC(C)C[C@H](NC(=O)[C@H](C)NC(=O)[C@H](CC(=O)O)NC(=O)[C@H](C)NC(=O)[C@H](C)N)C(=O)N[C@@H](CC(C)C)C(=O)N[C@@H](CC(C)C)C(=O)N[C@@H](CCCCN)C(=O)O [AADALLLK] | 291.8 Å² and 277.8 Å² |  | 
3 | CCC(C)[C@H](NC(=O)[C@H](CC(N)=O)NC(=O)[C@H](C)N)C(=O)N[C@@H](CC(=O)O)C(=O)N[C@H](C(=O)N[C@@H](CCCCN)C(=O)O)C(C)C (stereo partly drawn) [ANIDVK] | 248.1 Å² |  | 
4 | CC(C)C[C@H](NC(=O)[C@H](C)NC(=O)[C@@H](N)CCC(=O)O)C(=O)N[C@@H](CC(=O)O)C(=O)N[C@@H](Cc1ccccc1)C(=O)N[C@@H](Cc1ccccc1)C(=O)N[C@@H](C)C(=O)N[C@@H](CCCNC(=N)N)C(=O)O [EALDFFAR] | 305.9 Å² |  | 
5 | CC(C)C[C@H](NC(=O)[C@H](CCC(=O)O)NC(=O)[C@@H](N)CCC(=O)O)C(=O)N[C@@H](Cc1ccccc1)C(=O)N[C@@H](CCCNC(=N)N)C(=O)O [EELFR] | 254.1 Å² |  | 
6 | NCC(=O)N[C@@H](CCCN=C(N)N)C(=O)NCC(=O)N[C@@H](CC(=O)O)C(=O)N[C@@H](CO)C(=O)O [GRGDS] | 205.9 Å² | 208.2 Å² | collision cross section (N2) ([M+K]+): 210.4 Å²
7 | CC(C)[C@H](NC(=O)CN)C(=O)N[C@@H](Cc1ccccc1)C(=O)N[C@@H](CCCNC(=N)N)C(=O)O [GVFR] | 214.8 Å² |  | 
8 | CCCCCCCCCCCCCCCC(=O)N[C@@H](CO[C@@H]1O[C@H](CO)[C@@H](O)C(O)C1O)[C@H](O)CCCCCCCCCCCCCCC (stereo partly drawn) [GlcCer(34:0)] |  | 281.7 Å² | 
9 | CCCCCCCCCCCCC=CC[C@@H](O)[C@H](CO[C@@H]1O[C@H](CO)[C@@H](O)C(O)C1O)NC(=O)CCCCCCCCCCCCCCCCCC (stereo partly drawn) [GlcCer(37:1)] |  | 286.8 Å² | 
10 | CCCCCCCCCCCCCCCCCCCC(=O)N[C@@H](CO[C@@H]1O[C@H](CO)[C@@H](O)C(O)C1O)[C@H](O)CCCCCCCCCCCCCCC (stereo partly drawn) [GlcCer(38:0)] |  | 295.6 Å² | 
11 | CCCCCCCCCCCCC=CC[C@@H](O)[C@H](CO[C@@H]1O[C@H](CO)[C@@H](O)C(O)C1O)NC(=O)CCCCCCCCCCCCCCCCCCC (stereo partly drawn) [GlcCer(38:1)] |  | 293.8 Å² | 
12 | CCCCCCCCCCCCC=CC[C@@H](O)[C@H](CO[C@@H]1O[C@H](CO)[C@@H](O)C(O)C1O)NC(=O)CC=CCCCCCCCCCCCCCCCCCC (stereo partly drawn) [GlcCer(40:2)] |  | 297.1 Å² | 
13 | CCCCCCCCCCCCC=CC[C@@H](O)[C@H](CO[C@@H]1O[C@H](CO)[C@@H](O)C(O)C1O)NC(=O)CC=CCCCCCCCCCCCCCCCCCCCCC (stereo partly drawn) [GlcCer(43:2)] |  | 307.8 Å² | 
14 | CCCCCCCCCCCCC=CC[C@@H](O)[C@H](CO[C@@H]1O[C@H](CO)[C@@H](O)C(O)C1O)NC(=O)CC=CCCCCCCCCCCCCCCCCCCCCCC (stereo partly drawn) [GlcCer(44:2)] |  | 315.3 Å² | 
15 | CCCCCCCCCCCCC=CC[C@@H](O)[C@H](CO[C@@H]1O[C@H](CO)[C@@H](O)C(O)C1O)NC(=O)CC=CCC=CCCCCCCCCCCCCCCCCCCC (stereo partly drawn) [GlcCer(44:3)] |  | 310.7 Å² | 
16 | CC(C)C[C@H](NC(=O)[C@H](CC(=O)O)NC(=O)[C@H](C)NC(=O)[C@H](CC(C)C)NC(=O)[C@@H](N)Cc1c[nH]cn1)C(=O)N[C@@H](CO)C(=O)N[C@@H](CCCCN)C(=O)O [HLADLSK] | 273.3 Å² |  | 
17 | CC(=O)NC1C(OC2C(O)C(CO)OC(OC3C(CO)OC(O)C(O)C3O)C2O)OC(CO)C(O)C1OC1OC(CO)C(O)C(O)C1O (stereo not drawn) [HexNAc-(Hex)3] |  | 244 Å² | collision cross section (N2) ([M+K]+): 248.2 Å²; collision cross section (N2) ([M+Na-H2O]+): 244.9 Å²
18 | CC(=O)NC1C(OC2C(O)C(CO)OC(OC(C(O)CO)C(OC3OC(C)C(O)C(O)C3O)C(O)C=O)C2O)OC(CO)C(O)C1OC1OC(CO)C(O)C(O)C1O (stereo not drawn) [HexNAc-Fuc-(Hex)3] |  |  | collision cross section (N2) ([M+Na-H2O]+): 262 Å² and 263.1 Å²
19 | CCC(C)[C@H](N)C(=O)NCC(=O)N[C@@H](CC(=O)O)C(=O)N[C@@H](Cc1ccc(O)cc1)C(=O)N[C@@H](C)C(=O)NCC(=O)N[C@H](C(=O)N[C@@H](CCCCN)C(=O)O)C(C)CC (stereo partly drawn) [IGDYAGIK] | 285.9 Å² |  | 
20 | CC(C)C[C@H](NC(=O)[C@H](CC(C)C)NC(=O)[C@H](CCC(N)=O)NC(=O)[C@H](CC(N)=O)NC(=O)[C@@H](N)CC(C)C)C(=O)N[C@@H](CCCNC(=N)N)C(=O)O [LNQLLR] | 275.6 Å² |  | 
21 | CC(=O)N[C@H]1[C@H](OC2[C@@H](O)[C@H](O[C@@H]([C@H](O[C@@H]3O[C@@H](C)[C@@H](O)[C@@H](O)[C@@H]3O)[C@@H](O)C=O)[C@H](O)CO)O[C@H](CO)[C@@H]2O)O[C@H](CO)[C@@H](O[C@@H]2O[C@@H](C)[C@@H](O)[C@@H](O)[C@@H]2O)[C@@H]1O[C@@H]1O[C@H](CO)[C@H](O)[C@H](O)[C@H]1O (stereo partly drawn) [Lacto-N-Difucohexaose II] |  | 291.2 Å² and 306.3 Å² | collision cross section (N2) ([M+K]+): 305.8 Å²
